Data taken from PMC9960827, “Cloning and Characterization of Trypanosoma congolense and T. vivax Nucleoside Transporters Reveal the Potential of P1-Type Carriers for the Discovery of Broad-Spectrum Nucleoside-Based Therapeutics against Animal African Trypanosomiasis” (International Journal of Molecular Sciences, 2023).
Read-outs that look alike come from different tables or passages of the source. Marks after values point to notes of the source that are not given here.

Experiments:
[1] = tested on: L. mexicana Cas9; test: Resazurin drug sensitivity assay, LmexCas9; type: cell-based, Leishmania mexicana; settings: resazurin, promastigotes; read-out: LmexCas9 EC50
Procedure: (§1) EC50 values were determined by plotting to an equation for a sigmoid curve with variable slope (GraphPad Prism 8). All values were the average of at least three independent determinations on different days.

[2] = tested on: L. mexicana SUPKO+TcoAT1; test: microbe, parasite or virus in culture; type: cell-based, Leishmania mexicana; settings: for SUPKO+TcoAT1 RF (SUPKO): Resistance Factor relative to SUPKO; for EC50: resazurin, promastigotes, read-out: SUPKO+TcoAT1 EC50
Procedure: as §1

[3] = tested on: L. mexicana SUPKO+TvxNT3; test: microbe, parasite or virus in culture; type: cell-based, Leishmania mexicana; settings: for SUPKO+TvxNT3 RF (SUPKO): Resistance Factor relative to SUPKO; for EC50: resazurin, promastigotes, read-out: SUPKO+TvxNT3 EC50
Procedure: as §1

[4] = tested on: L. mexicana SUPKO; test: microbe, parasite or virus in culture; type: cell-based, Leishmania mexicana; settings: for SUPKO RF (Cas9): Resistance Factor = EC50(SUPKO)/EC50(Cas9); for EC50: resazurin, promastigotes, read-out: SUPKO EC50
Procedure: as §1

[5] = tested on: T. congolense IL3000; test: Alamar Blue (resazurin) assay, T. congolense IL3000; type: cell-based, Trypanosoma congolense; settings: BSF, resazurin; read-out: T. congolense IL3000 EC50
Procedure: as §1

[6] = tested on: T. congolense 6C3; test: microbe, parasite or virus in culture; type: cell-based, Trypanosoma congolense; settings: for EC50: diminazene resistant strain, resazurin, read-out: T. congolense 6C3 EC50; for T. congolense 6C3 RF: resistance factor = EC50 (test strain)/EC50(control strain)
Procedure: as §1

[7] = tested on: T.b.b. B48; test: Alamar Blue (resazurin) assay, T. b. brucei B48; type: cell-based, Trypanosoma brucei brucei; settings: multidrug-resistant strain, resazurin; read-out: T.b.b. B48 EC50
Procedure: as §1

[8] = tested on: T. evansi; test: Alamar Blue (resazurin) assay, T. evansi; type: cell-based, Trypanosoma evansi; settings: resazurin; read-out: T. evansi EC50
Procedure: as §1

[9] = tested on: T. equiperdum; test: Alamar Blue (resazurin) assay, T. equiperdum; type: cell-based, Trypanosoma equiperdum; settings: resazurin; read-out: T. equiperdum EC50
Procedure: as §1

[10] = tested on: human embryonic kidney (HEK) cells; test: Resazurin toxicity assay on human embryonic kidney cells; type: cell-based; settings: for SI T. congolense: selectivity index = EC50 (HEK cells)/EC50 (T. congolense); for SI T. equiperdum: selectivity index = EC50 (HEK cells)/EC50 (T. equiperdum); for SI T. evansi: selectivity index = EC50 (HEK cells)/EC50 (T. evansi)
Procedure: as §1

[11] = tested on: T. vivax; set-up: method as in Mabille et al. [69]; settings: added for comparison only; ref Mabille et al. [69]; cited from earlier work
[12] = molecular target: T. congolense adenosine transporter; test: [3H]-adenosine uptake and its inhibition in T. congolense IL3000 bloodstream forms; type: cell-based, Trypanosoma congolense; settings: for Ki: 0.05 µM [3H]-adenosine, 30 s, IC50 converted to Ki, read-out: Ki on the transport of [3H]-adenosine; for ΔG0, Gibbs free energy of interaction: calculated from Km or Ki
Procedure: (§2) Uptake assays using radiolabeled trypanocides and/or nucleosides were carried out as described previously. Briefly, parasite cultures were harvested, washed twice in assay buffer (33 mM HEPES, 98 mM NaCl, 4.6 mM KCl, 0.5 mM CaCl2, 0.07 mM MgSO4, 5.8 mM NaH3PO4, 0.03 mM MgCl2, 23 mM NaHCO3, 14 mM D-glucose, pH 7.3), then resuspended and adjusted to a density of 1 × 10^8 cells/mL in assay buffer. The radiolabeled permeant in the presence or absence of different concentrations of potential inhibitors reconstituted in 100 μL assay buffer was deposited on top of 250 μL oil mix in microcentrifuge tubes; 1 × 10^7 parasites in 100 μL assay buffer were added to the tube and incubated for a pre-determined interval. The reaction was stopped by the addition of 1 mL of a high concentration of ice-cold unlabeled substrate in assay buffer (‘stop solution’) and centrifugation, or by immediate centrifugation at […] as appropriate. The microcentrifuge tubes were flash-frozen, and the bottom of each tube containing the cell pellet was cut off and transferred to a scintillation vial. Cell pellets were lysed in 2% SDS, after which scintillation fluid (Scintlogic U, Lablogic) was added, followed by overnight incubation in the dark. Scintillation was measured in a 300SL (Hidex) scintillation counter (Hidex). All the assays were conducted in triplicate and analysis was carried out using Microsoft Excel and GraphPad Prism. All kinetic parameters were obtained on at least 3 separate occasions.
(§3) The dose-dependent uptake assay allowed for the affinity of nucleoside analogs to different nucleoside transporters to be determined by measuring the extent to which the analogs compete with and inhibit the uptake of radiolabel adenosine. This allowed for the determination of biochemical parameters such as Km and Vmax through the application of the Michaelis–Menten equation V0 = Vmax([substrate]/([substrate] + Km)). The 50% Inhibitory Concentration (IC50) of the purines and pyrimidines and their analogs was determined from non-linear regression to sigmoid curves with variable slope (Prism 8), and the IC50 of the inhibitor and the Km of the labeled permeant were then used to calculate the inhibition constant (Ki) of the analogs through the Cheng–Prusoff equation: Ki = IC50/(1 + (L/Km)), where L denotes the radiolabel concentration. The calculated Ki was in turn used to determine the Gibbs free energy (ΔG^0) of the inhibitor–transporter interaction using the equation: ΔG^0 = -RTln(Ki), where R represents the gas constant and T symbolizes the absolute temperature in Kelvin [104].

[13] = molecular target: TcoAT1; type: cell-based, Trypanosoma congolense; settings: for Ki: 0.05 µM [3H]-adenosine, 10 s, IC50 converted to Ki, read-out: Ki on the transport of [3H]-adenosine
Excerpt: The information for the T. congolense adenosine transporter (TcoAT1) and four putative T. vivax nucleoside transporters was obtained in the TritrypDB (tritrypdb.org/tritrypdb) genome database. Primers were designed to flank each gene upstream of the 5′ end (forward) and downstream of the 3′ end (reverse) as described (primer sequences in Supplementary Table S2). Following amplification from the genomic DNA of T. congolense or T. vivax, DNA for each extracted gene was ligated into the pNUS-HcN expression vector doubly digested with NdeI using the NEBuilder kit according to the manufacturer’s instructions (New England Biolabs). Construct was transformed into competent E. coli cells, and ligation was confirmed by restriction enzyme digestion of isolated plasmid DNA followed by Sanger sequencing (Source BioScience, Nottingham, UK). Confirmed plasmids were then transfected into L. mexicana cell line in which both NT1 and NT2 were doubly knocked out (SUPKO) and derived from L. mexicana Cas9 [64] as described. Clones grown in medium containing 50 μg/mL neomycin (G418) were collected for further confirmation by PCR with genomic DNA using a forward primer of the transporter gene and a reverse primer of the plasmid.
as §2, §3

[14] = tested on: T. vivax; test: T. vivax EC50 (from Mabille et al.); type: cell-based, Trypanosoma vivax; settings: from Table 8 data
[15] = tested on: T. congolense IL3000; set-up: method as in Hulpia et al. [38]; settings: values marked *; ref Hulpia et al. [38]; cited from earlier work
[16] = tested on: T. congolense 6C3; set-up: method as in Hulpia et al. [38]; settings: values marked *; ref Hulpia et al. [38]; cited from earlier work
[17] = resazurin, 96 well plates, read-out: HEK EC50

Structure (SMILES)	EC50 [1]	SUPKO+TcoAT1 RF (SUPKO) [2]	EC50 [2]	SUPKO+TvxNT3 RF (SUPKO) [3]	EC50 [3]	SUPKO RF (Cas9) [4]	EC50 [4]	EC50 [5]	EC50 [6]	T. congolense 6C3 RF [6]	EC50 [7]	EC50 [8]	EC50 [9]	EC50 [10, 17]	SI T. congolense [10]	SI T. equiperdum [10]	SI T. evansi [10]	EC50 [11]	Ki [12]	ΔG0, Gibbs free energy of interaction [12]	also measured
Nc1ncnc2c1c(Cl)cn2[C@@H]1O[C@H](CO)[C@@H](O)[C@H]1O [FH3169]	230 ± 5 nM	1.64	9410 ± 560 nM	0.97	15900 ± 2500 nM	67.7	15400 ± 2700 nM	860 ± 120 nM	750 ± 140 nM	0.87	1840 ± 330 nM	620 ± 60 nM	120 ± 18 nM	4550 ± 190 nM	5.3	37	7.4	53 ± 7 nM	–	–	–
Nc1ncnc2c1c(I)cn2[C@@H]1O[C@H](CO)C[C@H]1O [FH8496]	51800 ± 10300 nM	>2.2	23900 ± 5600 nM	>1.2	40000 ± 9200 nM	1.01	52600 nM	5.4 ± 1 nM	3 ± 0.2 nM	0.56	24 ± 2 nM	3.7 ± 1.2 nM	1.5 ± 0.5 nM	–	902	3260	1340	56 ± 1 nM	46200 ± 1700 nM	-5.9 kcal/mol	Ki [13]: 135000 ± 11000 nM; EC50 [10]: 4910 ± 30 nM
C#Cc1cn([C@@H]2O[C@H](CO)C[C@H]2O)c2ncnc(N)c12 [FH8505]	92700 ± 4300 nM	>1.1	89900 ± 12500 nM	>1.25	80000 ± 7700 nM	>1.08	> 100000 nM	17 ± 2 nM	8 ± 2 nM	0.46 ^a	31 ± 4 nM	7.8 ± 2 nM	2.6 ± 0.8 nM	–	68	446	151	160 ± 10 nM	–	–	fold higher EC50 against T. vivax compared to T. congolense [14]: 10–165 fold; EC50 [10]: 1170 ± 60 nM
Nc1ncnc2c1c(F)cn2[C@@H]1O[C@H](CO)C[C@H]1O [FH8517]	3090 ± 40 nM	1.64	6100 ± 700 nM	1.06	9420 ± 1410 nM	3.22	9960 ± 2040 nM	5.2 ± 0.3 nM	3.1 ± 0.3 nM	0.60	13 ± 2 nM	4 ± 0.6 nM	0.52 ± 0.11 nM	–	330	3310	431	500 ± 10 nM	98100 ± 2300 nM	-5.47 kcal/mol	Ki [13]: 229000 ± 15000 nM; ΔG0 ([13]; Gibbs free energy of binding, from Km or Ki): -4.97 kcal/mol; EC50 [10]: 1710 ± 110 nM
CC(C)Oc1ncnc2c1c(Cl)cn2[C@@H]1O[C@H](CO)[C@@H](O)[C@H]1O [FH9531]	> 100000 nM	–	> 100000 nM	–	> 100000 nM	–	> 100000 nM	–	–	0.80	–	–	–	–	–	–	–	120 ± 10 nM	–	–	EC50 [15]: 4040 ± 360 nM; EC50 [16]: 3230 ± 360 nM
C=Cc1cn([C@@H]2O[C@H](CO)C[C@H]2O)c2ncnc(N)c12 [FH10659]	> 100000 nM	–	> 100000 nM	–	> 100000 nM	–	> 100000 nM	56 ± 4 nM	40 ± 3 nM	0.70	–	38 ± 1.5 nM	11 ± 1 nM	–	–	–	–	1570 ± 430 nM	28500 ± 8100 nM	-6.19 kcal/mol	Ki [13]: 59300 ± 4300 nM; fold higher EC50 against T. vivax compared to T. congolense [14]: 10–165 fold
Nc1ncnc2c1ccn2[C@H]1C[C@H](O)[C@@H](CO)O1 [FH10677]	–	–	–	–	–	–	–	43300 ± 14500 nM	10900 ± 2300 nM	0.25	38000 ± 2300 nM	> 100000 nM	17400 ± 2300 nM	> 200000 nM	>4.6	>12	–	> 64000 nM	–	–	–
Nc1ncnc2c1c(Br)cn2[C@H]1C[C@H](O)[C@@H](CO)O1 [FH10679]	–	–	–	–	–	–	–	510 ± 90 nM	310 ± 70 nM	0.60	1040 ± 190 nM	1740 ± 530 nM	67 ± 13 nM	> 200000 nM	>390	>3000	>115	4300 ± 900 nM	–	–	–
Nc1ncnc2c1c(Br)cn2[C@@H]1O[C@H](CO)[C@@H](O)[C@H]1O [TH1003]	2430 ± 140 nM	>1.4	71100 ± 5000 nM	–	> 100000 nM	>41.2	> 100000 nM	790 ± 140 nM	520 ± 31 nM	0.66	1400 ± 90 nM	480 ± 60 nM	85 ± 26 nM	2370 ± 120 nM	3.0	28	4.9	740 ± 40 nM	–	–	–
